Reference: publication PMC11416114 (Infection and Drug Resistance, 2024)
Where “and” joins values, the source holds several entries; their conditions need not be identical. Equal entries are not always repeated. Where two headings read alike, the source gives them in different places.

Key:
[1] = cited from earlier work
[2] = mild to moderate hepatic impairment; cited from earlier work
[3] = cited from earlier work; remark: listed apart in the source
[4] = cited from earlier work; remark: listed apart in the source
[5] = Chinese patients aged 60 and above; typical patient; cited from earlier work
[6] = limit for steady-state Cpeak; cited from earlier work
[7] = eight CRRT supported critically ill patients; cited from earlier work
[8] = clinical; details: human, in vivo, 300 mg
[9] = critically ill adult patients; for Residual variability (σ) stdev, Final Model Estimate, Mean: log-additive error
[10] = test system: SARS-CoV-2; details: free exposure, cited from earlier work
[11] = healthy young adults, NIR/RIT 2250mg/100mg once

## CC(C)(C)[C@H](NC(=O)C(F)(F)F)C(=O)N1C[C@H]2[C@@H]([C@H]1C(=O)N[C@H](C#N)C[C@@H]1CCNC1=O)C2(C)C [NIR, Nirmatrelvir]
[1]; healthy adults aged 18–60
  CL/F: 8.2 L/h
  Ka: 1.11 h⁻¹
  V/F: 111 L
[1]; [11]
  AUC: 188.2 µg·h/mL
  CL/F: 3.97 L/h
  V/F: 40.06 L
[2]
  median plasma concentration and AUC in hepatic impairment: comparable to those with normal hepatic function
[3]
  protein binding: approximately 70%
[4]; moderate renal impairment group
  CL/F lower than normal renal function group: 47%
[4]; severe renal impairment group
  CL/F lower than normal renal function group: 80%
[5]
  CL/F: 4.16 L/h
  Ka: 0.776 h⁻¹
  V/F: 39.1 L
[6]
  human no observed adverse effect levels (NOAELs): 79,700 ng/mL
[7]
  valley concentrations: 3325.34 to 15625.46 ng/mL
[8]
  AUC: 107 µg·h/mL
[9]
  absorption rate constant (Ka), mean (SD): 0.42 (0.10) h^−1 and 0.42 h^−1
  apparent clearance (CL/F), mean (SD): 3.6 (0.26) L/h and 3.6 L/h
[9]; bootstrap
  Residual variability (σ) stdev, Bootstrap Estimate, Median: 0.26
  dCLdAUCRIT, Bootstrap Estimate, Median: −0.44
  dCLdCrCL, Bootstrap Estimate, Median: 0.58
  ω^2V (inter-individual variability), Bootstrap Estimate, Median: 0.60
[9]; bootstrap 1000 samples
  tvCL, Bootstrap of Final Model Estimate, Median: 3.2 L/h
  tvKa, Bootstrap of Final Model Estimate, Median: 0.61 h⁻¹
[9]; final model
  Residual variability (σ) stdev, Final Model Estimate, Mean: 0.26
[9]; one-compartment final model
  tvCL, Final Model Estimate, Mean: 3.6 L/h
  tvKa, Final Model Estimate, Mean: 0.42 h⁻¹
[10]
  in vitro EC90 (free): 90.5 ng/mL
[10]; read-out: in vitro EC90 (free)
  EC90: 181 nM

## CC(C)c1nc(CN(C)C(=O)N[C@H](C(=O)N[C@@H](Cc2ccccc2)C[C@H](O)[C@H](Cc2ccccc2)NC(=O)OCc2cncs2)C(C)C)cs1 [RIT, Ritonavir]
[9]; bootstrap
  Residual variability (σ) stdev, Bootstrap Estimate, Median: 0.34
  ω^2CL (inter-individual variability), Bootstrap Estimate, Median: 0.53
  ω^2V (inter-individual variability), Bootstrap Estimate, Median: 1.64
[9]; bootstrap 1000 samples
  tvCL, Bootstrap of Final Model Estimate, Median: 10.3 L/h
  tvKa, Bootstrap of Final Model Estimate, Median: 1.10 h⁻¹
  tvV, Bootstrap of Final Model Estimate, Median: 82.4 L
[9]; final model
  ω^2CL (inter-individual variability), Final Model Estimate, Mean: 0.57
  ω^2V (inter-individual variability), Final Model Estimate, Mean: 1.27
  Residual variability (σ) stdev, Final Model Estimate, Mean: 0.34
[9]; one-compartment final model
  tvCL, Final Model Estimate, Mean: 10.3 L/h
  tvKa, Final Model Estimate, Mean: 0.64 h⁻¹
  tvV, Final Model Estimate, Mean: 84.9 L
